ChEMBL document CHEMBL1201862, “PubChem BioAssay data set” (2004)
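Each compound was tested at five concentrations against cells in 96-well plates for 48 hours. GI50 is the concentration that inhibits growth by half.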 Active and inactive are the calls of the source. No stated cut-off is given here; in the data, active = GI50 up to about 1.1 µM and inactive = higher.

Tests used:
Test in all cases: NCI anticancer screen, dose series, 48 h
A498 = system: A498
CCRF-CEM = system: CCRF-CEM
COLO 205 = system: COLO 205
EKVX = system: EKVX
HCC 2998 = system: HCC 2998
HT-29 = system: HT-29
Malme-3M = system: Malme-3M
NCI-H23 = system: NCI-H23
NCI-H460 = system: NCI-H460
OVCAR-8 = system: OVCAR-8
RXF 393 = system: RXF 393
SF-268 = system: SF-268
SF-539 = system: SF-539
SK-MEL-28 = system: SK-MEL-28
SN12C = system: SN12C
TK-10 = system: TK-10
UO-31 = system: UO-31
MDA-MB-435 = system: MDA-MB-435
PC-3 = system: PC-3
MDA-N = system: MDA-N

Row | SMILES | GI50 (A498) | GI50 (CCRF-CEM) | GI50 (COLO 205) | GI50 (EKVX) | GI50 (HCC 2998) | GI50 (HT-29) | GI50 (Malme-3M) | GI50 (NCI-H23) | GI50 (NCI-H460) | GI50 (OVCAR-8) | GI50 (RXF 393) | GI50 (SF-268) | GI50 (SF-539) | GI50 (SK-MEL-28) | GI50 (SN12C) | GI50 (TK-10) | GI50 (UO-31) | GI50 (MDA-MB-435) | GI50 (PC-3) | GI50 (MDA-N)
1 | COC1=C(N)C(=O)c2nc(C)ccc2C1=O | 1.89 µM (inactive) | 17.2 µM (inactive) | 1.79 µM (inactive) | 2.77 µM (inactive) | 4.57 µM (inactive) | 1.98 µM (inactive) | 1.77 µM (inactive) | 1.47 µM (inactive) | 2.08 µM (inactive) | 3.93 µM (inactive) | 1.67 µM (inactive) | 2.11 µM (inactive) | 1.91 µM (inactive) | 1.82 µM (inactive) | 1.82 µM (inactive) | 8.2 µM (inactive) | 2.17 µM (inactive) |  |  | 
2 | CN1CCN(c2ccc3c(c2)NCC(=O)N3)CC1 | > 100 µM (inactive) | > 100 µM (inactive) | > 100 µM (inactive) | 96.4 µM (inactive) | > 100 µM (inactive) | > 100 µM (inactive) | > 100 µM (inactive) | > 100 µM (inactive) | > 100 µM (inactive) | > 100 µM (inactive) | > 100 µM (inactive) | > 100 µM (inactive) |  | > 100 µM (inactive) |  | > 100 µM (inactive) | > 100 µM (inactive) | > 100 µM (inactive) | > 100 µM (inactive) | 
3 | Cn1c(CO)ccc1-c1ccc(-c2ccc(CO)[se]2)[se]1 | 0.023 µM (active) | 1.8 µM (inactive) | 1.77 µM (inactive) | 48.1 µM (inactive) | 0.705 µM (active) | 37.7 µM (inactive) | 4.15 µM (inactive) | 16.3 µM (inactive) | 18.4 µM (inactive) | 6.89 µM (inactive) | > 26.2 µM (inactive) | > 78.5 µM (inactive) | 67 µM (inactive) | 17 µM (inactive) | 10.6 µM (inactive) | 0.0376 µM (active) | > 100 µM (inactive) | 3.08 µM (inactive) | 18.2 µM (inactive) | 
4 | CCOC(=O)Cn1nnc2cc(Nc3c(C)[n+]([O-])c4cc(F)c(OCC)cc4[n+]3[O-])ccc21 | > 100 µM (inactive) | > 100 µM (inactive) |  | > 100 µM (inactive) |  | > 100 µM (inactive) |  | > 100 µM (inactive) | > 100 µM (inactive) | > 100 µM (inactive) | 31.8 µM (inactive) | 45.8 µM (inactive) | > 100 µM (inactive) | > 100 µM (inactive) |  | 24.9 µM (inactive) | > 100 µM (inactive) | > 100 µM (inactive) | > 100 µM (inactive) | 
5 | O=C(NC1C(=O)NC(CCc2ccccc2)NC1=O)OCc1ccccc1 (stereo not given) | > 100 µM (inactive) | > 100 µM (inactive) | > 100 µM (inactive) | > 100 µM (inactive) |  | > 100 µM (inactive) | > 100 µM (inactive) | > 100 µM (inactive) | > 100 µM (inactive) | > 100 µM (inactive) | > 100 µM (inactive) | > 100 µM (inactive) | > 100 µM (inactive) | > 100 µM (inactive) | > 100 µM (inactive) | > 100 µM (inactive) | > 100 µM (inactive) | > 100 µM (inactive) | > 100 µM (inactive) | 
6 | CC1=NNC(=O)C2CCC(=O)N12 (stereo not given) | > 100 µM (inactive) | > 100 µM (inactive) | > 100 µM (inactive) | > 100 µM (inactive) | > 100 µM (inactive) |  | > 100 µM (inactive) |  | > 100 µM (inactive) | > 100 µM (inactive) | > 100 µM (inactive) | > 100 µM (inactive) | > 100 µM (inactive) | > 100 µM (inactive) | > 100 µM (inactive) | > 100 µM (inactive) | > 100 µM (inactive) |  |  | 
7 | COc1ccc(C2C=C(c3ccc(C)cc3)N(c3ccc(OC)cc3[N+](=O)[O-])C3C(=O)OC(=O)C23)c(OC)c1 (stereo not given) | 67 µM (inactive) | 35.1 µM (inactive) | 43.1 µM (inactive) | 28.2 µM (inactive) | 29.9 µM (inactive) | 24.3 µM (inactive) | 11.1 µM (inactive) | 52.4 µM (inactive) | 71.3 µM (inactive) | 16.2 µM (inactive) |  | 18.5 µM (inactive) | 24.4 µM (inactive) | > 100 µM (inactive) |  | 47.5 µM (inactive) |  | 44.3 µM (inactive) | 42.4 µM (inactive) | 
8 | CC1=C2C=CC(=O)C[C@@]2(C)CCC1 | > 100 µM (inactive) | > 100 µM (inactive) | > 100 µM (inactive) | > 100 µM (inactive) | > 100 µM (inactive) | > 100 µM (inactive) | > 100 µM (inactive) | > 100 µM (inactive) | > 100 µM (inactive) | > 100 µM (inactive) | > 100 µM (inactive) | > 100 µM (inactive) | > 100 µM (inactive) | > 100 µM (inactive) | > 100 µM (inactive) | > 100 µM (inactive) | > 100 µM (inactive) |  |  | 
9 | C=C1C(=O)O[C@H]2C1C[C@H](O)[C@@]1(C)OC1CC[C@@]1(C)O[C@H]21 (stereo not given in full) |  | 2.61 µM (inactive) | 4.88 µM (inactive) | 18.2 µM (inactive) | 14.7 µM (inactive) | 32.5 µM (inactive) | 12 µM (inactive) | 19.5 µM (inactive) | > 100 µM (inactive) | 19 µM (inactive) | 22.5 µM (inactive) | 43.2 µM (inactive) |  | 19.4 µM (inactive) | 17.4 µM (inactive) | 19.8 µM (inactive) | 17.1 µM (inactive) | 23.5 µM (inactive) | 17.8 µM (inactive) | 
10 | CCCCC[C@H]1CCCCCCCCCC(=O)OC2C(O[C@@H]3OC(C)[C@H](OC(=O)[C@@H](C)CC)C(O[C@@H]4OC(C)[C@H](O)C(O)[C@@H]4O)[C@@H]3OC(=O)[C@H](C)CC)[C@H](OC3C(O)[C@@H](O)C(C)O[C@H]3O1)OC(CO)[C@H]2O (stereo not given in full) |  | 18.6 µM (inactive) | 11.9 µM (inactive) | 19.2 µM (inactive) | 17.2 µM (inactive) | 16.7 µM (inactive) | 15.3 µM (inactive) | 17.9 µM (inactive) | 18.2 µM (inactive) | 19.3 µM (inactive) |  | 16.3 µM (inactive) |  | 16.1 µM (inactive) | 17.5 µM (inactive) | 20.1 µM (inactive) | 16.1 µM (inactive) |  | 16.2 µM (inactive) | 17.4 µM (inactive)
11 | CCOc1ccc(NC(=O)C(=O)CC(=O)c2c[n+]([O-])c3cc(C)c(C)cc3[n+]2[O-])cc1 | > 100 µM (inactive) | > 100 µM (inactive) | > 100 µM (inactive) | 90.8 µM (inactive) | > 100 µM (inactive) | > 100 µM (inactive) | > 100 µM (inactive) | > 100 µM (inactive) | > 100 µM (inactive) | > 100 µM (inactive) | > 100 µM (inactive) | > 100 µM (inactive) | > 100 µM (inactive) | > 100 µM (inactive) | > 100 µM (inactive) | > 100 µM (inactive) | > 100 µM (inactive) |  |  | 
12 | O=C(O)COc1ccc(C(=O)/C(SS/C(C(=O)c2ccc(OCC(=O)O)c(Cl)c2Cl)=C2\C=C(c3ccc(Br)cc3)SS2)=C2/C=C(c3ccc(Br)cc3)SS2)c(Cl)c1Cl | 18.2 µM (inactive) | 3.21 µM (inactive) | 3.11 µM (inactive) | 28 µM (inactive) | 10.2 µM (inactive) | 12.2 µM (inactive) | 11.5 µM (inactive) | 4.62 µM (inactive) | 19.3 µM (inactive) | 5.16 µM (inactive) |  | 2.82 µM (inactive) | 4.3 µM (inactive) | 24.8 µM (inactive) | 6.32 µM (inactive) | 26.7 µM (inactive) | 4.32 µM (inactive) | 30.3 µM (inactive) |  | 
13 | N#C/C(=C\c1cc(F)cc(F)c1)c1ccccn1 |  | 18.1 µM (inactive) | > 10 µM (inactive) | 13 µM (inactive) | 21.1 µM (inactive) | 34.4 µM (inactive) | 25.9 µM (inactive) | 26.1 µM (inactive) | 22.7 µM (inactive) | 16 µM (inactive) | 26.7 µM (inactive) | 19.4 µM (inactive) | 19.5 µM (inactive) | 47 µM (inactive) | 24 µM (inactive) | 30.8 µM (inactive) | 34.7 µM (inactive) |  | 24.3 µM (inactive) | 19.7 µM (inactive)
14 | CC1=CC2=C(C)C3(CC3)[C@@](C)(O)C(=O)C2=C1 | 0.241 µM (active) | > 1 µM (active) | 0.221 µM (active) | 0.535 µM (active) | 0.178 µM (active) | 0.227 µM (active) | 0.0933 µM (active) | 0.0822 µM (active) | 0.0783 µM (active) | 0.211 µM (active) | 0.149 µM (active) | 0.133 µM (active) | 0.219 µM (active) | 0.194 µM (active) | 0.231 µM (active) | 0.329 µM (active) | 0.19 µM (active) |  |  | 
15 | Cc1nc2c(s/c(=N\N)n2-c2ccccc2)c(=O)[nH]1 | > 100 µM (inactive) | > 100 µM (inactive) | > 100 µM (inactive) | > 100 µM (inactive) | > 100 µM (inactive) | > 100 µM (inactive) | > 100 µM (inactive) | > 100 µM (inactive) | > 100 µM (inactive) | > 100 µM (inactive) | > 100 µM (inactive) | > 100 µM (inactive) | > 100 µM (inactive) | > 100 µM (inactive) | > 100 µM (inactive) | > 100 µM (inactive) | > 100 µM (inactive) |  |  | 
16 | O=C(NO)C(=O)Nc1ccc(Cl)cc1[N+](=O)[O-] | > 100 µM (inactive) | > 100 µM (inactive) | > 100 µM (inactive) | 33.9 µM (inactive) | > 100 µM (inactive) | > 100 µM (inactive) | > 100 µM (inactive) | > 100 µM (inactive) | > 100 µM (inactive) | > 100 µM (inactive) | > 100 µM (inactive) | > 100 µM (inactive) | > 100 µM (inactive) | > 100 µM (inactive) | > 100 µM (inactive) | > 100 µM (inactive) | > 100 µM (inactive) |  |  | 
